Assay [1] concerns 48 hr homologous passive cutaneous anaphylaxis (PCA) in rat. Nature of the assay: Antiallergic activity (48 hr homologous passive cutaneous anaphylaxis (PCA) in rat). It is filed as in vivo, rat (male Wistar). The following applies: oral, 1 hr before antigen challenge, vs control group, read-out: Inhibition rate (%) of PCA. As for the experimental part:
2. Antiallergic activity (48 hr homologous passive cutaneous anaphylaxis (PCA) in rat)
Male Wistar rats, 6 weeks of age, were passively sensitized by intracutaneous injection in the back of a volume of 0.1 ml of anti-DNP-As rat serum. Forty-eight hours later, the animals were administered an intravenous injection of 0.5 ml saline solution containing 1 mg of DNP-As and 5 mg of Evans blue. The animals were sacrificed 30 min after the injection and the extravasated dye was extracted with 1N KOH and acetone, neutralized with 1N H3 PO4 and the absorbance at 620 nm was determined. The test compounds were administered orally in a dose of 1 mg/Kg 1 hr before antigen challenge. The inhibitory activity of a test compound was expressed as percent inhibition of PCA as compared with the control group.

Assay [2] concerns the target T1, contractile response induced by histamine in isolated guinea-pig ileum (Cavia porcellus, UniProt P31389).
T1 construct: An approximately 20 mm strip of isolated ileum was mounted vertically; from tissue; host or cells: isolated ileum strip, male Hartley guinea-pig
As to the kind of experiment: Antihistaminic activity (Effect on the contractile response induced by histamine in isolated guinea-pig ileum). On the set-up: species or system guinea-pig (male Hartley). The following applies: dissociation constant KB (M), method of Furchgott, 30 min contact with test compound, 28° C. As for the experimental part: 1. Antihistaminic activity (Effect on the contractile response induced by histamine in isolated guinea-pig ileum)
Male Hartley guinea-pigs, 5-8 weeks of age, were sacrificed and the ileum was excised. […] The contractile response was recorded on a recticorder an isotonic transducer. The concentration-contractile response curve to histamine was constructed before and after 30 min contact with test compounds.

In general, inhibition refers to the share of the control response that was lost under treatment.

T1 sequence (P31389 whole entry): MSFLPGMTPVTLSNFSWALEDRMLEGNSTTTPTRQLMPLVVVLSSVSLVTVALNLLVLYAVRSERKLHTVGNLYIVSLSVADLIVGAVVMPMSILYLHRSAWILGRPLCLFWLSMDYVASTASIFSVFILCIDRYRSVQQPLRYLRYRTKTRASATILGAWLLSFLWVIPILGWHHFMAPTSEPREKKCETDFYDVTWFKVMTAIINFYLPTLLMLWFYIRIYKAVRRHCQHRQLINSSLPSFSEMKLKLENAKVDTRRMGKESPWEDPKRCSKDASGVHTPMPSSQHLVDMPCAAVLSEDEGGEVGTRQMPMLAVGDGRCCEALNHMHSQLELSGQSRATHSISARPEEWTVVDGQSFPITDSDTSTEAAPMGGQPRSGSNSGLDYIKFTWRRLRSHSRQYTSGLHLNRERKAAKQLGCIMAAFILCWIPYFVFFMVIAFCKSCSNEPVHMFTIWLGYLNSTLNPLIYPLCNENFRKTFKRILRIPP

`Clc1ccc2c(c1)C(N1CCNCC1)=Nc1ccccc1O2` [Amoxapine, reference compound]: the inhibition at 1 mg/kg in assay [1] stood at 50.9%. In assay [2], `CCOC(=O)CCCCN1CCN(C2=Nc3ccccc3Oc3ccc(Cl)cc32)CC1` [Example 5, Ethyl 4-(2-Chlorodibenz[b,f][1,4]oxazepin-11-yl)-1-piperazinevalerate] gave a Kb of 1.05e-08 M.

For the compound `O=C(O)CCN1CCN(C2=Nc3ccccc3Cc3ccccc32)CC1` [Example 30, 4-(11H-Dibenz[b,e]azepin-6-yl)-1-piperazinepropionic acid], the Kb in assay [2] was 5.75e-08 M.

On to `O=C(O)CCCCN1CCN2c3ccccc3Cc3ccccc3C2C1` (stereo not shown) [Example 43, 5-(1,2,3,4,10,14b-Hexahydrodibenzo[c,f]pyrazino[1,2-a]azepin-2-yl)valeric acid], for which the inhibition at 1 mg/kg in assay [1] worked out at 73.9%. In assay [2], this compound gave a Kb of 4.79e-08 M. With `O=C(O)CCCCCN1CCN(C2=Nc3ccccc3Sc3ccc(Cl)cc32)CC1` [Example 22, 4-(2-Chlorodibenzo[b,f][1,4]thiazepin-11-yl)-1-piperazinecaproic acid], the inhibition at 1 mg/kg in assay [1] stood at 77.2%. In assay [2], this compound showed a Kb of 3.47e-08 M. Take `CCOC(=O)CCCCCN1CCN(C2=Nc3ccccc3Oc3ccc(Cl)cc32)CC1` [Example 6]: the Kb in assay [2] is 3.09e-09 M.

Consider `O=C(O)CCN1CCN2c3ccccc3Cc3ccccc3C2C1` (stereo not shown) [Example 41, 3-(1,2,3,4,10,14b-Hexahydrodibenzo[c,f]pyrazino[1,2-a]azepin-2-yl)propionicacid], for which the inhibition at 1 mg/kg in assay [1] is 76.5%. In addition, the Kb in assay [2] is 2.51e-08 M. Regarding `O=C(O)CN1CCN2c3ccccc3Cc3ccccc3C2C1` (stereo not shown) [Example 40, 2-(1,2,3,4,10,14b-Hexahydrodibenzo[c,f]pyrazino[1,2-a]azepin-2-yl)acetic acid], the Kb in assay [2] was 1.82e-08 M. For `O=C(O)CCCN1CCN(C2=Nc3ccccc3Sc3ccc(Cl)cc32)CC1` [Example 20, 4-(2-Chlorodibenzo[b,f][1,4]thiazepin-11-yl)-1-piperazinebutyric acid], in assay [1], the inhibition at 1 mg/kg worked out at 77.7%. Moreover, the Kb in assay [2] is 5.75e-08 M.

Turning to `CCOC(=O)CCCN1CCN(C2=Nc3ccccc3Sc3ccc(Cl)cc32)CC1` [Example 15, Ethyl 4-(2-Chlorodibenzo [b,f][1,4]thiazepin-11-yl)-1-piperazinebutyrate], the Kb in assay [2] was 3.02e-08 M.

In turn, `CCOC(=O)CN1CCN2c3ccccc3Cc3ccccc3C2C1` (stereo not shown) [Example 36, Ethyl 2-(1,2,3,4,10,14b-Hexahydrodibenzo[c,f]pyrazino[1,2-a]azepin-2-yl)acetate] gave a Kb in assay [2] of 3.24e-08 M.

In assay [2], `O=C(O)CCCCCN1CCN(C2=Nc3ccccc3Cc3ccccc32)CC1` [Example 33, 4-(11H-Dibenz[b,e]azepin-6-yl)-1-piperazinecaproic acid] gave a Kb of 2.69e-08 M. As for `O=C(O)CCN1CCN(C2=Nc3ccccc3Oc3ccc(Cl)cc32)CC1` [Example 8, 4-(2-Chlorodibenz[b,f][1,4]oxazepin-11-yl)-1-piperazinepropionic acid], in assay [1], the inhibition at 1 mg/kg came out at 88.6%. This compound gave a Kb in assay [2] of 5.01e-08 M. Consider `CCOC(=O)CCCN1CCN(C2=Nc3ccccc3Oc3ccc(Cl)cc32)CC1` [Example 4, Ethyl 4-(2-Chlorodibenz[b,f][1,4]oxazepin-11-yl)-1-piperazinebutyrate], for which, in assay [2], the Kb is 4.9e-09 M. The compound `CCOC(=O)CN1CCN(C2=Nc3ccccc3Cc3ccccc32)CC1` [Example 25, Ethyl 4-(11H-Dibenz[b,e]azepin-6-yl)-1-piperazineacetate] gave a Kb in assay [2] of 4.57e-08 M. Take `O=C(O)CCN1CCN(C2=Nc3ccccc3Sc3ccc(Cl)cc32)CC1` [Example 19, 4-(2-Chlorodibenzo[b,f][1,4]thiazepin-11-yl)-1-piperazinepropionic acid]: the inhibition at 1 mg/kg in assay [1] worked out at 64.6%. In addition, the Kb in assay [2] is 5.25e-08 M. Compound `CN1CCN(C2=Nc3ccccc3Sc3ccc(Cl)cc32)CC1` [Clothiapine, reference compound] showed a Kb in assay [2] of 1.35e-09 M. The same measure, in the same setting: with `CCOC(=O)CCCCN1CCN2c3ccccc3Cc3ccccc3C2C1` (stereo not shown) [Example 38, Ethyl 5-(1,2,3,4,10,14b-Hexahydrodibenzo[c,f]pyrazino[1,2-a]azepin-2-yl)valerate] the figure was 1.1e-08 M. The same measure, in the same setting: with `CCOC(=O)CCN1CCN2c3ccccc3Cc3ccccc3C2C1` (stereo not shown) [Example 35, Ethyl 3-(1,2,3,4,10,14b-Hexahydrodibenzo[c,f]pyrazino[1,2-a]azepin-2-yl)propionate] the figure was 2.69e-09 M; with `CCOC(=O)CCN1CCN(C2=Nc3ccccc3Cc3ccccc32)CC1` [Example 24, Ethyl 4-(11H-Dibenz[b,e]azepin-6-yl)-1-piperazinepropionate], 8.91e-09 M. `CCOC(=O)CCCCCN1CCN2c3ccccc3Cc3ccccc3C2C1` (stereo not shown) [Example 39, Ethyl 6-(1,2,3,4,10,14b-Hexahydrodibenzo[c,f]Pyrazino[1,2-a]azepin-2-yl)caproate] had a Kb in assay [2] of 1.29e-08 M. In the case of `O=C(O)CCCN1CCN(C2=Nc3ccccc3Oc3ccc(Cl)cc32)CC1` [Example 9, 4-(2-Chlorodibenz[b,f][1,4]oxazepin-11-yl)-1-piperazinebutyric acid], the inhibition at 1 mg/kg in assay [1] was 95.8%. The Kb in assay [2] was 4.79e-08 M. As for `O=C(O)CCCCN1CCN(C2=Nc3ccccc3Sc3ccc(Cl)cc32)CC1` [Example 21, 4-(2-Chlorodibenzo [b,f][1,4]thiazepin-11-yl)-1-piperazinevaleric acid], the inhibition at 1 mg/kg in assay [1] was 78.5%. The compound further had a Kb in assay [2] of 5.89e-08 M.

`CCOC(=O)CCCCCN1CCN(C2=Nc3ccccc3Sc3ccc(Cl)cc32)CC1` [Example 17, Ethyl 4-(2-Chlorodibenzo[b,f][1,4]thiazepin-11-yl)-1piperazinecaproate] had a Kb in assay [2] of 5.5e-08 M.

On to `CCOC(=O)CCCCN1CCN(C2=Nc3ccccc3Sc3ccc(Cl)cc32)CC1` [Example 16, Ethyl 4-(2-Chlorodibenzo[b,f][1,4]thiazepin-11-yl)-1-piperazinevalerate], for which, in assay [2], the Kb is 4.68e-08 M. In the case of `O=C(O)CCCN1CCN2c3ccccc3Cc3ccccc3C2C1` (stereo not shown) [Example 42, 4-(1,2,3,4,10,14b-Hexahydrodibenzo[c,f]pyrazino[1,2-a]azepin-2-yl)butyric acid], the inhibition at 1 mg/kg in assay [1] worked out at 65.6%. Further, the Kb in assay [2] is 3.09e-08 M. `O=C(O)CCCCCN1CCN2c3ccccc3Cc3ccccc3C2C1` (stereo not shown) [Example 44, 6-(1,2,3,4,10,14b-Hexahydrodibenzo[c,f]pyrazino[1,2-a]azepin-2-yl)caproic acid]: the inhibition at 1 mg/kg in assay [1] stood at 71.8%. In assay [2], the Kb is 3.24e-08 M.

In the case of `O=C(O)CCCCN1CCN(C2=Nc3ccccc3Cc3ccccc32)CC1` [Example 32, 4-(11H-Dibenz[b,e]azepin-6-yl)-1-piperazinevaleric acid], in assay [2], the Kb is 5.75e-08 M. For `CCOC(=O)CCN1CCN(C2=Nc3ccccc3Oc3ccc(Cl)cc32)CC1` [Example 2, Ethyl 4-(2-Chlorodibenz[b,f][1,4]oxazepin-11-yl)-1-piperazinepropionate], the Kb in assay [2] was 1.2e-08 M. In assay [2], `CCOC(=O)CCCCN1CCN(C2=Nc3ccccc3Cc3ccccc32)CC1` [Example 27, Ethyl 4-(11H-Dibenz[b,e]azepin-6-yl)-1-piperazinevalerate] gave a Kb of 7.94e-09 M. For the compound `CCOC(=O)CCCN1CCN2c3ccccc3Cc3ccccc3C2C1` (stereo not shown) [Example 37, Ethyl 4-(1,2,3,4,10,14b-Hexahydrodibenzo[c,f]pyrazino[1,2-a]azepin-2-yl)butyrate], in assay [2], the Kb was 2.4e-09 M. As for `O=C(O)CCCCN1CCN(C2=Nc3ccccc3Oc3ccc(Cl)cc32)CC1` [Example 10, 4-(2-Chlorodibenz[b,f][1,4]oxazepin-11-yl)-1-piperazinevaleric acid], the inhibition at 1 mg/kg in assay [1] turned out to be 84.1%. In addition, in assay [2], the Kb is 5.5e-08 M.

As for `CN1CCN(C2=Nc3ccccc3Cc3ccccc32)CC1` [Perlapine, reference compound], in assay [2], the Kb was 7.08e-10 M. Still for that read-out and setting: as for `CCOC(=O)CCCN1CCN(C2=Nc3ccccc3Cc3ccccc32)CC1` [Example 26, Ethyl 4-(11H-Dibenz[b,e]azepin-6-yl)-1-piperazinebutyrate], the figure is 1.35e-08 M.

The compound `CCOC(=O)CCCCCN1CCN(C2=Nc3ccccc3Cc3ccccc32)CC1` [Example 28, Ethyl 4-(11H-Dibenz[b,e]azepin-6-yl)-1-piperazinecaproate] gave a Kb in assay [2] of 1.74e-08 M. `CCOC(=O)CCN1CCN(C2=Nc3ccccc3Sc3ccc(Cl)cc32)CC1` [Example 13, Ethyl 4-(2-Chlorodibenzo[b,f][1,4]thiazepin-11-yl)-1-piperazinepropionate] gave a Kb in assay [2] of 5.13e-08 M. As for `CN1CCN2c3ccccc3Cc3ccccc3C2C1` (stereo not shown) [Mianserin, reference compound], the inhibition at 1 mg/kg in assay [1] worked out at 61.4%. Still for that read-out and setting: as for `O=C(O)CCCCCN1CCN(C2=Nc3ccccc3Oc3ccc(Cl)cc32)CC1` [Example 11], the figure is 86.4%.

The values above are taken from US5344828A, “Piperazinealkanoic acid and a pharmaceutical composition comprising the same” (Hokuriku Pharmaceutical Co., Ltd., priority 1990, dated 1994).
